{"source": "paper PMC10126419", "about": "“pyHeart4Fish: Chamber-specific heart phenotype quantification of zebrafish in high-content screens” (Frontiers in Cell and Developmental Biology, 2023)", "key": {"[1]": {"set-up": "method as in Prestwick Chemical Library", "details": "solvents; library annotation, ref Prestwick Chemical Library; cited from earlier work"}, "[2]": {"system": "Tg(fli1a:nEGFP)^y7 zebrafish embryos", "assay": "Primary high-content heart rate screen of the Prestwick Chemical Library (HeartBeat software v.2.1)", "format": "in vivo", "details": "20 µM", "description": "Acquired image series were preprocessed and analyzed using the previously published HeartBeat software v.2.1 and provided scripts ([Gierten et al., 2020]). For increased comparability between experiments, each quantitative HR value (beats per minute) was divided by the mean of the DMSO controls from the respective experiment. This procedure minimizes variation and creates specific fold-change values that are z-score normalized in the next step. A 90% CI was used to reduce the probability of false-negative results. Finally, data from compounds with insufficient N and known aquatic toxicity were removed.\nBased on a previously established high-throughput screening pipeline, we performed a high-content drug screen in zebrafish for cardiovascular modulators ([Poureetezadi et al., 2014]; [Gierten et al., 2020]; [Westhoff et al., 2020]). […] About 98% of the library’s compounds are approved by the Food and Drug Administration (FDA), European Medicines Agency (EMA) or other regulatory agencies. The drug library was screened at a concentration of 20 µM for 24 h until 48 hpf using the transgenic zebrafish line Tg(fli1a:nEGFP)^y7. Subsequently, BF images and videos were captured at 2 dpf to assess gross morphology. HR was analyzed with the previously published tool HeartBeat (v.2.1) to identify potential hit compounds. A 90% CI threshold for effect sizes of ±1.64 was used to reduce false-negative results. […] The Open Targets platform and the Mayo Clinic Drugs and Supplements Database were systematically searched for compound names and common synonyms ([Drugs and Supplements, 2022]; [Open Targets, 2022]). The Medical Subject Headings (MeSH) terms “compound name” and “heart rate” were applied to NCBI PubMed literature research before the first five pages of publications sorted by relevance were screened for relevant information. Furthermore, compounds were filtered for unknown targets (n = 3), FDA black box warning (n = 6) and aquatic toxicity (n = 4). […] Therefore, compounds with n < 3 were excluded (n = 7)."}, "[3]": {"system": "Tg(myl7:eGFP)^twu34/+ zebrafish embryos", "details": "in vivo", "experimental": "(§1) Embryos were dechorionated at 21 hpf using 0.22 mg/ml pronase (Merck Chemicals) for 12 min. Then, embryos were carefully washed three times with egg water and transferred into a 96-deep-well plate. After incubation at 28°C for 3 h, excess water was removed with a glass capillary and exchanged with 100 µL/well of 20 µM compound solution from the Prestwick Chemical Library (Prestwick Chemicals, France) in 0.2% DMSO (v/v) in egg water. […] Subsequently, embryos were exposed to compounds for 24 h at 28°C in the dark to enable testing of light-sensitive compounds. Solutions were removed at 48 hpf before wells containing embryos were washed three times with system water. Then, treated embryos were transferred into 12-well plates containing 1 ml 0.03% tricaine in system water (Sigma-Aldrich, Germany). Testing different concentrations (5–80 µM) of compounds and their respective controls followed the above protocol.\n(§2) Oriented embryos in 96-well plates were automatically imaged using an [sequence] Imaging Machine ([sequence] Imaging, Germany) widefield microscope. Z-stacks of 10 slices (dZ = 15 µm) were acquired in brightfield (BF) and 470 nm channels with a 4×0.13 numerical aperture objective. The focal plane was detected in the 470 nm channel using a course and secondary fine software autofocus. BF integration time was fixed at 20 ms exposure time and 55% LED intensity. The exposure time for the 470 nm channel was set to 10 ms with a 10% LED intensity. Heartbeat videos of 6 s at 6 frames/second (f/s) were acquired with a time-lapse at a 0 s interval in the focus plane acquired after secondary autofocus using the previously described integration and exposure settings with a 10×0.25 numerical aperture objective.\n(§3) Hearts are analyzed chamber-specifically via the user-assisted region of interest (ROI) selection. Cardiac morphology parameters (HS and shape) are extracted as the median of the first six images/frames. Raw data of heartbeat curves for the atrium and ventricle are derived from the sum of pixel intensities and normalized chamber areas. Frequencies (in s^-1) of atrium and ventricle contraction are obtained by applying sine-curve fitting or fast Fourier transformation (FFT) using the SciPy modules “optimize.curve_fit” and “fft.rfft/fft.rfftfreq”, respectively ([Virtanen et al., 2020]). Curve fitting is performed with a maximum of 30 iterations while increasing the frequencies of the fitted sine function. The best fit is selected using the correlation coefficient between the raw data and the fitted function implemented in the NumPy package. A fitted sine function and fitting score are also determined for a truncated signal (first quarter), and the best-fitted sine function is kept to account for an unstable heartbeat signal. In the case of FFT, the first harmonic of the FFT signal is used as the frequency of the atrium or ventricle contraction. Analysis with pyHeart4Fish provides heartbeat videos in GIF format, heartbeat curves as PNG/PDF files and a data sheet containing meta information and cardiac parameters."}, "zebrafish embryos": {"system": "zebrafish embryos", "assay": "Manually assessed pericardial edema in treated zebrafish", "format": "in vivo", "description": "FIGURE 4 Quantitative data analysis with pyHeart4Fish. […] (A) The left graph presents the detected heart rate derived from the fast fourier transformation (FFT). […] (B) Percentual data on the severity of manually assessed pericardial edema in treated Tg(myl7:eGPF)^twu34/+ zebrafish. (C) The relative contractility derived from percentual size changes of each heart chamber (left graph). Approximate ejection fraction determined by chamber volume changes (right graph). […] The number of fish analyzed is shown in brackets after the treatment condition. Dotted gray lines indicate z-scores of ±1.96 and statistical significance with an alpha error of 5%."}, "[4]": {"system": "Tg(myl7:eGFP)^twu34/+ zebrafish embryos", "assay": "Chamber-specific quantitative heart phenotyping with pyHeart4Fish;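 on all read-outs here: embryos exposed 24 h from 24 hpf in 0.2% DMSO egg water, tricaine-anaesthetised, heartbeat videos imaged at 470 nm and hearts analysed chamber by chamber from pixel-intensity beat curves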", "details": "20 µM; for Arrhythmia / Conduction defect: number of fish", "experimental": "as §1, §2, §3"}, "[5]": {"details": "Tg(fli1a:nEGFP)^y7, zebrafish, in vivo, 24 h"}, "[6]": {"details": "number of fish, 20 µM, Tg(myl7:eGFP)"}, "[7]": {"details": "24 h until 48 hpf, Tg(fli1a:nEGFP)y7"}}, "note": "Entries after “also recorded” stand apart in the source; their conditions may differ. Structures can show the parent of a compound that is named as a salt. Where two headings read alike, the source gives them in different places.", "data": [{"smiles": "CN1CCC(OC(c2ccccc2)c2ccccc2)CC1", "note": "[Diphenylpyraline hydrochloride]", "values": [{"measurement": "Lit. Solubility", "setting": "[1]", "value": "H2O, EtOH"}, {"measurement": "Z-score Heart rate", "setting": "[2]; [5]", "value": -3.549, "unit": "z-score"}]}, {"smiles": "CN(C)CCC(c1ccc(Br)cc1)c1ccccn1", "note": "(centres unmarked) [Brompheniramine maleate]", "values": [{"measurement": "Z-score Heart rate", "setting": "[2]; [5]", "value": -2.122, "unit": "z-score"}]}, {"smiles": "CN1CCCC(n2nc(Cc3ccc(Cl)cc3)c3ccccc3c2=O)CC1", "note": "(centres unmarked) [Azelastine hydrochloride]", "values": [{"measurement": "Lit. Solubility", "setting": "[1]", "value": "H2O, EtOH, DMSO"}, {"measurement": "Z-score Heart rate", "setting": "[2]; [5]", "value": -2.598, "unit": "z-score"}]}, {"smiles": "[Cl-].[Na+]", "note": "[NaCl, sodium chloride]", "values": [{"measurement": "Arrhythmia", "setting": "[3]", "value": 1}, {"measurement": "Chamber size Atrium Max. Contraction", "setting": "[3]", "value": -0.090, "unit": "z-score"}, {"measurement": "Chamber size Atrium Max. Dilation", "setting": "[3]", "value": -0.215, "unit": "z-score"}, {"measurement": "Chamber size Ventricle Max. Contraction", "setting": "[3]", "value": -0.643, "unit": "z-score"}, {"measurement": "Chamber size Ventricle Max. Dilation", "setting": "[3]", "value": 0.353, "unit": "z-score"}, {"measurement": "Conduction defect", "setting": "[3]", "value": 0}, {"measurement": "Effect on heart function / morphology: contractility, conduction, arrhythmia, HS, EF", "setting": "[3]", "value": "did not significantly affect heart morphology or functionality"}, {"measurement": "Ejection Fraction Atrium", "setting": "[3]", "value": -0.097, "unit": "z-score"}, {"measurement": "Ejection Fraction Ventricle", "setting": "[3]", "value": 1.036, "unit": "z-score"}, {"measurement": "FFT freq Atrium (heart rate)", "setting": "[3]", "value": -0.679, "unit": "z-score"}, {"measurement": "FFT freq Ventricle (heart rate)", "setting": "[3]", "value": -0.573, "unit": "z-score"}, {"measurement": "Heart size", "setting": "[3]", "value": 0.745, "unit": "z-score"}, {"measurement": "Relative contractility Atrium", "setting": "[3]", "value": -0.00158, "unit": "z-score"}, {"measurement": "Relative contractility Ventricle", "setting": "[3]", "value": 0.272, "unit": "z-score"}, {"measurement": "Edema: Mild", "setting": "zebrafish embryos; zebrafish, in vivo", "value": 7}, {"measurement": "Edema: Moderate", "setting": "zebrafish embryos; zebrafish, in vivo", "value": 0}, {"measurement": "Edema: No edema", "setting": "zebrafish embryos; zebrafish, in vivo", "value": 8}, {"measurement": "Edema: Severe", "setting": "zebrafish embryos; zebrafish, in vivo", "value": 0}]}, {"smiles": "CC(C)c1c(C(=O)Nc2ccccc2)c(-c2ccccc2)c(-c2ccc(F)cc2)n1CC[C@@H](O)C[C@@H](O)CC(=O)O", "note": "[Atorvastatin, atorvastatin]", "values": [{"measurement": "Effect on heart function / morphology: contractility, conduction, arrhythmia, HS, EF", "setting": "[4]; vs DMSO controls", "value": "did not cause electrophysiological conduction defects"}, {"measurement": "Effect on heart rate", "setting": "[4]; vs DMSO controls", "value": "significantly decreased HR"}, {"measurement": "Arrhythmia", "setting": "[4]", "value": 11}, {"measurement": "Conduction defect", "setting": "[4]", "value": 0}, {"measurement": "Edema: Mild", "setting": "zebrafish embryos; [6]", "value": 5}, {"measurement": "Edema: Moderate", "setting": "zebrafish embryos; [6]", "value": 1}, {"measurement": "Edema: No edema", "setting": "zebrafish embryos; [6]", "value": 5}, {"measurement": "Edema: Severe", "setting": "zebrafish embryos; [6]", "value": 0}]}, {"smiles": "CN(C)CCCOc1nn(Cc2ccccc2)c2ccccc12", "note": "[Benzydamine HCl]", "values": [{"measurement": "Effect on heart function / morphology: contractility, conduction, arrhythmia, HS, EF", "setting": "[4]; vs DMSO controls", "value": "do not induce arrhythmia"}, {"measurement": "Effect on heart function / morphology: contractility, conduction, arrhythmia, HS, EF", "setting": "[4]; vs DMSO controls, listed as BZY", "value": "no conduction defects or arrhythmias were detected; also recorded: relative ventricle contractility increased significantly"}, {"measurement": "Arrhythmia", "setting": "[4]", "value": 1}, {"measurement": "Conduction defect", "setting": "[4]", "value": 0}, {"measurement": "Treated embryos with pericardial edema", "setting": "zebrafish embryos; 20 µM", "value": 50, "unit": "%"}, {"measurement": "Edema: Mild", "setting": "zebrafish embryos; [6]", "value": 2}, {"measurement": "Edema: Moderate", "setting": "zebrafish embryos; [6]", "value": 0}, {"measurement": "Edema: No edema", "setting": "zebrafish embryos; [6]", "value": 2}, {"measurement": "Edema: Severe", "setting": "zebrafish embryos; [6]", "value": 0}]}, {"smiles": "CN1CCCN(C(c2ccccc2)c2ccc(Cl)cc2)CC1.Cl.Cl", "note": "(centres unmarked) [Homochlorcyclizine dihydrochloride]", "values": [{"measurement": "Z-score Heart rate", "setting": "[2]; [7]", "value": -1.853, "unit": "z-score"}]}, {"smiles": "CN1CCC[C@@H]1CCO[C@](C)(c1ccccc1)c1ccc(Cl)cc1", "note": "[Clemastine fumarate]", "values": [{"measurement": "Lit. Solubility", "setting": "[1]", "value": "MeOH"}, {"measurement": "Z-score Heart rate", "setting": "[2]; [5]", "value": -2.7618, "unit": "z-score"}]}, {"smiles": "Cc1ccc(/C(=C\\CN2CCCC2)c2ccccn2)cc1.Cl", "note": "[Triprolidine hydrochloride]", "values": [{"measurement": "Lit. Solubility", "setting": "[1]", "value": "H2O, MeOH, EtOH"}]}, {"smiles": "CCOC(=O)N1CCC(=C2c3ccc(Cl)cc3CCc3cccnc32)CC1", "note": "[Loratadine]", "values": [{"measurement": "Z-score Heart rate", "setting": "[2]; [7]", "value": -1.771, "unit": "z-score"}]}, {"smiles": "CC(C)(C)c1ccc(C(O)CCCN2CCC(C(O)(c3ccccc3)c3ccccc3)CC2)cc1", "note": "(centres unmarked) [Terfenadine]", "values": [{"measurement": "Lit. Solubility", "setting": "[1]", "value": "EtOH/H2O:50/50"}, {"measurement": "Z-score Heart rate", "setting": "[2]; [5]", "value": -5.761, "unit": "z-score"}]}, {"smiles": "CN(C)CCOC(c1ccc(Cl)cc1)c1ccccn1.O=C(O)/C=C\\C(=O)O", "note": "(centres unmarked) [Carbinoxamine maleate salt]", "values": [{"measurement": "Lit. Solubility", "setting": "[1]", "value": "H2O, EtOH, CHCl3"}]}, {"smiles": "CN1CCN(C(c2ccccc2)c2ccc(Cl)cc2)CC1", "note": "(centres unmarked) [Chlorcyclizine hydrochloride]", "values": [{"measurement": "Lit. Solubility", "setting": "[1]", "value": "H2O, CHCl3"}, {"measurement": "Z-score Heart rate", "setting": "[2]; [7]", "value": -2.061, "unit": "z-score"}]}]}
